Measurements reported in patent US11773076B2, “Crystalline forms of a somatostatin modulator” (Crinetics Pharmaceuticals, Inc., priority 2021, dated 2023).
Entries after “also recorded” stand apart in the source; their conditions may differ.

Tests used:
SSTR5 = SSTR5 (Homo sapiens, UniProt P35346); experiment: SSTR5 agonist potency; format: cell-based
SSTR2 = SSTR2 (Homo sapiens, UniProt P30874); experiment: Selectivity for SSTR5 over SSTR2; format: cell-based
[1] = Thermodynamic stability: one-week slurry stability of crystalline Pattern A (XRPD); format: physicochemical
Procedure: One-week slurry stability studies were performed on crystalline Pattern A in five solvents and solvent systems at room temperature (20-24° C.) and at 10° C. About 25 mg of Compound 1 was weighed into 2 mL vials and the solvent was added to each vial at room temperature with stirring. The solvents and solvent systems used in the experiments were: IPA:water (1:1 vol), THF:heptane (1:2 vol), ACN:heptane (1:2 vol), MIBK:heptane (1:2 vol), and IPAc.
For the IPA:water (1:1 vol) samples, 10 vol. of IPA:water (1:1 vol) was added, whereas 7 vol. were initially added for the other solvent systems. One set of vials was left to stir at room temperature and the other set was transferred to a cold stir plate at 10° C. After 5 days, samples that remained in solutions were seeded with Pattern A (0.5-1 mg) and left to stir for one week.

[2] = Dry and solvent drop milling, XRPD after milling; format: physicochemical
Procedure: Dry and solvent drop milling was done using a small Wig-L-Bug ball mill with ¼″ stainless steel ball as milling media. About 25 mg of crystalline Pattern A of Compound 1 was weighed into a milling capsule and one volume of solvent (solvent drop) was added. The milling was carried out at 3,800 rpm in three steps of 30 s each. The solids were recovered after milling and analyzed by XRPD.

[3] = Thermal stability of crystalline Pattern A (DSC cycling, then XRPD); format: physicochemical
Procedure: Two samples of Crystalline Pattern A were prepared and cycled in the DSC and then analyzed by XRPD.
The first sample of Pattern A (9.4 mg) was heated from 30° C. to 150° C. and then cooled back to 30° C.
The second sample of Pattern A (14.4 mg) was heated from 30° C. to 118° C. and then cooled back to 30° C. The sample recovered after the DSC experiment appeared as a light-amber pellet that was easily pressed into a powder on the XRPD plate.

[4] = Stability of solid state forms on humidity exposure (static storage, XRPD re-analysis); format: physicochemical; details: 40° C./75% RH for 7 days
Procedure: Samples were assessed for stability under static storage conditions of 40° C./75% RH for 7 days. The samples were then re-analyzed by XRPD.

[5] = Dynamic Vapor Sorption (DVS); format: physicochemical
Procedure: Dynamic Vapor Sorption (DVS) was performed using a DVS Intrinsic 1. The sample (10-15 mg) was loaded into a sample pan, suspended from a microbalance and exposed to a humidified stream of nitrogen gas. The sample was held for a minimum of 5 min at each level and only progressed to the next humidity level if there was <0.002% change in weight between measurements (interval: 60 seconds) or 240 min had elapsed. The following program was used: • (1) Equilibration at 50% RH • (2) 50% to 2% (50%, 40%, 30%, 20%, 10% and 2%) • (3) 2% to 95% (2%, 10%, 20%, 30%, 40%, 50%, 60%, 70%, 80%, 90%, 95%) • (4) 95% to 2% (95%, 80%, 70%, 60%, 50%, 40%, 30%, 20%, 10%, 2%) • (5) 2% to 50% (2%, 10%, 20%, 30%, 40%, 50%)

[6] = Stability of crystalline patterns on drying (XRPD); format: physicochemical; details: for XRPD after drying on the benchtop: 2 days
Procedure: Samples of amorphous Compound 1 (either 30 mg/mL or 60 mg/mL) were dissolved in DCM and were allowed to evaporate either at room temperature or 45° C. After stirring for about 40 min, the resulting slurries were filtered and analyzed by XRPD. Pattern B was obtained for the wet cakes of recovered solids. Pattern B changed to C after drying under static vacuum at 50° C. overnight.
In a separate experiment, about 71 mg of amorphous Compound 1 was weighed into a 4 mL vial and 10 vol. (710 μL) of DCM was added at room temperature. After stirring for 5 min, a thin slurry formed. XRPD analysis of a sample taken from the slurry after 1 h confirmed Pattern B. The vial was then transferred to a fridge at 5° C. for ˜3 h and then to a freezer at −20° C. overnight. Small amount of solid settled to the bottom of the vial after cooling at −20° C., the yield was very low, about 6% w/w. XRPD confirmed Pattern B. Pattern B was left to dry on the benchtop at room temperature for 2 days. XRPD analysis on the sample after 2 days confirmed that Pattern B was stable. Thermal analysis on a small sample (0.7 mg) of Pattern B was performed by DSC.
A sample of 48.9 mg of amorphous Compound 1 and 3 vol. (˜150 μL) of MIBK:heptane was prepared at 45° C. A small amount of gummy solid formed after addition of the solvent system. The vial was vortexed and sonicated few times to break the gum and a thin slurry was obtained after 5 min of stirring. The sample was left to stir at 45° C. for about 5 h and then transferred to a stir plate at room temperature. After stirring overnight at room temperature, the sample was filtered and the solid was collected for XRPD analysis. The yield was low, ˜7% w/w.
Thermal analysis on a small sample of Pattern D was performed by DSC.

Chain of SSTR5 (P35346 whole entry): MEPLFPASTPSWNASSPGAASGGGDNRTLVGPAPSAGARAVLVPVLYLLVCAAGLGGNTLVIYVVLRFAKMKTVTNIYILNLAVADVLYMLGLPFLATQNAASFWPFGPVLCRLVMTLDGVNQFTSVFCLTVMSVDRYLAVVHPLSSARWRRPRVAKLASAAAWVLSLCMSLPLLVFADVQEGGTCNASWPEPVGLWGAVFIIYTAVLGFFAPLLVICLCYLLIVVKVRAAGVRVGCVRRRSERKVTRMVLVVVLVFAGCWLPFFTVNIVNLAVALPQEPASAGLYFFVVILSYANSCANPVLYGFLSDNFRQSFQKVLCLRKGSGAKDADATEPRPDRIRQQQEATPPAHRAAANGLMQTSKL
Chain of SSTR2 (P30874 whole entry): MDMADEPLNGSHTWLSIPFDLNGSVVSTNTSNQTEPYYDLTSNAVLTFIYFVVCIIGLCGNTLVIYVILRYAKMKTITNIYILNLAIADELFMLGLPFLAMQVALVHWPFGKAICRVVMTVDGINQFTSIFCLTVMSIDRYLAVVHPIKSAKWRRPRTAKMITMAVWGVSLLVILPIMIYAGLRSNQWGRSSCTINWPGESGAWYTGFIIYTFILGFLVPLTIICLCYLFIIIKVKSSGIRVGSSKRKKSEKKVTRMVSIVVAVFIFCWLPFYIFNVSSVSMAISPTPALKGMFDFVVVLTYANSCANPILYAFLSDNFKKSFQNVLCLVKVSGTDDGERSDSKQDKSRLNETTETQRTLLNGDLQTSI

C[C@H](NC(=O)c1cnc(C#N)c(-c2cc(F)cc(F)c2)c1N1CC[C@H](N)C1)C(F)(F)F [Compound 1, 4-[(3S)-3-aminopyrrolidin-1-yl]-6-cyano-5-(3,5-difluorophenyl)-N-[(2S)-1,1,1-trifluoropropan-2-yl]pyridine-3-carboxamide]
EC50 (SSTR5): < 1 nM | selectivity for SSTR5 over SSTR2 (SSTR2): > 500 fold

C[C@H](NC(=O)c1cnc(C#N)c(-c2cc(F)cc(F)c2)c1N1CC[C@H](N)C1)C(F)(F)F [Pattern A, 4-[(3S)-3-aminopyrrolidin-1-yl]-6-cyano-5-(3,5-difluorophenyl)-N-[(2S)-1,1,1-trifluoropropan-2-yl]pyridine-3-carboxamide]
XRPD pattern after one-week slurry ([1]; MIBK:heptane (1:2 vol) at 10° C.): Pattern B | XRPD pattern after one-week slurry ([1]; MIBK:heptane (1:2 vol) at room temperature): Pattern A+trace of a new pattern, Pattern D | XRPD pattern after one-week slurry ([1]; remaining six analysable samples: IPA:water (1:1), THF:heptane (1:2), IPAc, room temperature and 10° C.): Pattern A | crystallinity (XRPD) after dry milling ([2]; dry milling, 3,800 rpm, three steps of 30 s): lost after dry milling resulting in amorphous material | crystallinity (XRPD) after solvent milling ([2]; solvent drop milling in IPAc, water, and MIBK): remained stable | XRPD after DSC thermal cycling ([3]; heated from 30° C. to 118° C. and cooled back to 30° C.): stable after the DSC treatment | XRPD after DSC thermal cycling ([3]; heated from 30° C. to 150° C. and cooled back to 30° C.): amorphous pattern | XRPD after static storage [4]: no change in the XRPD | total mass change between 2 and 95% RH ([5]; DVS, 2 to 95% RH): 0.7% | mass gain from 20 to 75% RH ([5]; DVS, 20 to 75% RH): 0.37% | mass loss from 50 to 2% RH ([5]; DVS, 50 to 2% RH): 0.2% | XRPD pattern after DVS analysis ([5]; sample measured by DVS, 2-95% RH): unchanged after DVS analysis

C[C@H](NC(=O)c1cnc(C#N)c(-c2cc(F)cc(F)c2)c1N1CC[C@H](N)C1)C(F)(F)F [Pattern B, 4-[(3S)-3-aminopyrrolidin-1-yl]-6-cyano-5-(3,5-difluorophenyl)-N-[(2S)-1,1,1-trifluoropropan-2-yl]pyridine-3-carboxamide]
XRPD after drying on the benchtop ([6]; room temperature): stable | XRPD after drying under vacuum at 50° C. ([6]; vacuum, 50° C.): changed to C; also recorded: converted to Pattern C

C[C@H](NC(=O)c1cnc(C#N)c(-c2cc(F)cc(F)c2)c1N1CC[C@H](N)C1)C(F)(F)F [Pattern D, 4-[(3S)-3-aminopyrrolidin-1-yl]-6-cyano-5-(3,5-difluorophenyl)-N-[(2S)-1,1,1-trifluoropropan-2-yl]pyridine-3-carboxamide]
XRPD after drying under active vacuum at room temperature ([6]; overnight, active vacuum, room temperature): converted to C | XRPD after drying on the benchtop ([6]; room temperature): remained stable
